Converted amounts (≈) assume the structure as drawn.
Legend:
Staphylococcus aureus [1] = test: Antimicrobial activity against Staphylococcus aureus RN4220 by broth microdilution method; type: functional
Staphylococcus aureus [2] = test: Antimicrobial activity against Staphylococcus aureus RN4220 transformant carrying plasmid pKKS25 and expressing erm(T), dfrK and tet(L) genes by broth microdilution method; type: functional
Staphylococcus aureus [3] = test: Antimicrobial activity against Staphylococcus aureus 25 transformant carrying plasmid pKKS25 and expressing erm(T), dfrKtet(L), tet(K), tet(M), mecA and blaZ genes by broth microdilution method

| Molecule | MIC (Staphylococcus aureus [1]) [mg/L] | MIC (Staphylococcus aureus [2]) [mg/L] | MIC (Staphylococcus aureus [3]) [mg/L] |
| --- | --- | --- | --- |
| CC1(C)S[C@@H]2[C@H](NC(=O)[C@H](N)c3ccccc3)C(=O)N2[C@H]1C(=O)O [AMPICILLIN] | 0.06 (≈ 0.172 µM) | 0.06 (≈ 0.172 µM) | – |
| CN[C@@H]1[C@@H](O[C@H]2O[C@H](CO)[C@@H](N)[C@H](O)[C@H]2O)OC2C[C@@H](N)[C@@H](O[C@H]3[C@H](O)[C@@H](O)[C@H](N)C[C@@H]3N)OC2[C@@H]1O (stereo not given in full) [APRAMYCIN] | 1 (≈ 1.85 µM) | 1 (≈ 1.85 µM) | 4 (≈ 7.41 µM) |
| O=C(N[C@H](CO)[C@H](O)c1ccc([N+](=O)[O-])cc1)C(Cl)Cl [CHLORAMPHENICOL] | 4 (≈ 12.4 µM) | 4 (≈ 12.4 µM) | 8 (≈ 24.8 µM) |
| CCC[C@@H]1C[C@@H](C(=O)N[C@@H]([C@H]2O[C@H](SC)[C@H](O)[C@@H](O)[C@H]2O)[C@H](C)Cl)N(C)C1 [CLINDAMYCIN] | ≤ 0.12 | ≥ 64 | ≥ 64 |
| CCN1CCN(c2cc3c(cc2F)c(=O)c(C(=O)O)cn3C2CC2)CC1 [ENROFLOXACIN] | 0.25 (≈ 0.696 µM) | 0.25 (≈ 0.696 µM) | 0.25 (≈ 0.696 µM) |
| CC[C@H]1OC(=O)[C@H](C)[C@@H](O[C@H]2C[C@@](C)(OC)[C@@H](O)[C@H](C)O2)[C@H](C)[C@@H](O[C@@H]2O[C@H](C)C[C@H](N(C)C)[C@H]2O)[C@](C)(O)C[C@@H](C)C(=O)[C@H](C)[C@@H](O)[C@]1(C)O [ERYTHROMYCIN] | 0.25 (≈ 0.341 µM) | ≥ 128 | ≥ 128 |
| CC(=O)NC[C@H]1CN(c2ccc(N3CCOCC3)c(F)c2)C(=O)O1 [LINEZOLID] | 0.5 (≈ 1.48 µM) | 0.5 (≈ 1.48 µM) | 0.5 (≈ 1.48 µM) |
| Cc1onc(-c2ccccc2)c1C(=O)N[C@@H]1C(=O)N2[C@@H]1SC(C)(C)[C@@H]2C(=O)O [OXACILLIN] | 0.06 (≈ 0.149 µM) | 0.06 (≈ 0.149 µM) | 8 (≈ 19.9 µM) |
| CC1(C)S[C@@H]2[C@H](NC(=O)Cc3ccccc3)C(=O)N2[C@H]1C(=O)O [PENICILLIN G] | ≤ 0.03 | – | 16 (≈ 47.8 µM) |
| CN[C@@H]1[C@H](O)[C@H](NC)[C@H]2O[C@@]3(O)C(=O)C[C@@H](C)O[C@H]3O[C@@H]2[C@H]1O [SPECTINOMYCIN] | 64 (≈ 193 µM) | 64 (≈ 193 µM) | 64 (≈ 193 µM) |
| CN(C)[C@@H]1C(O)=C(C(N)=O)C(=O)[C@@]2(O)C(O)=C3C(=O)c4c(O)cccc4[C@@](C)(O)[C@H]3C[C@@H]12 [TETRACYCLINE] | 0.06 (≈ 0.135 µM) | 32 (≈ 72 µM) | 128 (≈ 288 µM) |
| C=C[C@]1(C)C[C@@H](OC(=O)CSCCN(CC)CC)[C@]2(C)[C@H](C)CC[C@]3(CCC(=O)[C@H]32)[C@@H](C)[C@@H]1O [TIAMULIN] | 0.12 (≈ 0.243 µM) | 0.12 (≈ 0.243 µM) | 0.5 (≈ 1.01 µM) |
| COc1cc(Cc2cnc(N)nc2N)cc(OC)c1OC [TRIMETHOPRIM] | 0.5 (≈ 1.72 µM) | ≥ 128 | ≥ 128 |
| CC[C@H]1OC(=O)C[C@@H](O)[C@H](C)[C@@H](O[C@@H]2O[C@H](C)[C@@H](O[C@H]3C[C@@](C)(O)[C@@H](O)[C@H](C)O3)[C@H](N(C)C)[C@H]2O)[C@@H](CC=O)C[C@@H](C)C(=O)/C=C/C(C)=C/[C@@H]1CO[C@@H]1O[C@H](C)[C@@H](O)[C@@H](OC)[C@H]1OC.O=C(O)C(O)C(O)C(=O)O [TYLOCIN TARTARATE] | 1 | ≥ 64 | ≥ 64 |
| C=C[C@]1(C)C[C@@H](OC(=O)CSC(C)(C)CNC(=O)[C@H](N)C(C)C)[C@]2(C)[C@H](C)CC[C@]3(CCC(=O)[C@H]32)[C@@H](C)[C@@H]1O [VALNEMULIN] | 0.03 (≈ 0.0531 µM) | 0.03 (≈ 0.0531 µM) | 0.03 (≈ 0.0531 µM) |
| GENTAMICIN | 0.25 | 0.25 | – |

Source: ChEMBL document CHEMBL1240375, “Identification of a plasmid-borne resistance gene cluster comprising the resistance genes erm(T), dfrK, and tet(L) in a porcine methicillin-resistant Staphylococcus aureus ST398 strain” (2010)
